In PMC3914206:

Assays:
Format in all cases: binding
Settings in all cases: Compound Concentration 10 µM
panel of 442 kinases [1] = target: T1, panel of 442 kinases (Homo sapiens, UniProt P37023)
T1 construct: purchased KINOMEscan
Excerpt: (§1) We assessed the selectivity of members of this scaffold using the KINOMEscan methodology across a near comprehensive panel of 442 kinases [[18,27]].

panel of 442 kinases [2] = target: T2, panel of 442 kinases (Homo sapiens, UniProt P42338)
T2 construct: purchased KINOMEscan
Excerpt: as §1

panel of 442 kinases [3] = target: T3, panel of 442 kinases (Homo sapiens, UniProt O75914)
T3 construct: purchased KINOMEscan
Excerpt: as §1

T1 sequence (P37023 22-503): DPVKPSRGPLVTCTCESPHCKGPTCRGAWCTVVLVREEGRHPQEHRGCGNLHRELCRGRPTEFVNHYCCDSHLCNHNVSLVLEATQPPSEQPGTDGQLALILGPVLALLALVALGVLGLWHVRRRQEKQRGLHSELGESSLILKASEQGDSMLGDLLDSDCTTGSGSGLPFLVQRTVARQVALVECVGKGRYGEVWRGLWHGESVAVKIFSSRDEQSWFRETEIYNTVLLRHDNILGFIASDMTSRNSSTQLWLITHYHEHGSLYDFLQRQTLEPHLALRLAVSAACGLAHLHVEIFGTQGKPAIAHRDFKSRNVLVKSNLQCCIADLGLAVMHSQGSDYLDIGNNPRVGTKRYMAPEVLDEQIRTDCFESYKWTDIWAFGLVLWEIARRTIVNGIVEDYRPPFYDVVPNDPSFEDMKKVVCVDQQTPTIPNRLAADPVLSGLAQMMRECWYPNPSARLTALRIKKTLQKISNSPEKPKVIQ
T2 sequence (P42338 whole entry): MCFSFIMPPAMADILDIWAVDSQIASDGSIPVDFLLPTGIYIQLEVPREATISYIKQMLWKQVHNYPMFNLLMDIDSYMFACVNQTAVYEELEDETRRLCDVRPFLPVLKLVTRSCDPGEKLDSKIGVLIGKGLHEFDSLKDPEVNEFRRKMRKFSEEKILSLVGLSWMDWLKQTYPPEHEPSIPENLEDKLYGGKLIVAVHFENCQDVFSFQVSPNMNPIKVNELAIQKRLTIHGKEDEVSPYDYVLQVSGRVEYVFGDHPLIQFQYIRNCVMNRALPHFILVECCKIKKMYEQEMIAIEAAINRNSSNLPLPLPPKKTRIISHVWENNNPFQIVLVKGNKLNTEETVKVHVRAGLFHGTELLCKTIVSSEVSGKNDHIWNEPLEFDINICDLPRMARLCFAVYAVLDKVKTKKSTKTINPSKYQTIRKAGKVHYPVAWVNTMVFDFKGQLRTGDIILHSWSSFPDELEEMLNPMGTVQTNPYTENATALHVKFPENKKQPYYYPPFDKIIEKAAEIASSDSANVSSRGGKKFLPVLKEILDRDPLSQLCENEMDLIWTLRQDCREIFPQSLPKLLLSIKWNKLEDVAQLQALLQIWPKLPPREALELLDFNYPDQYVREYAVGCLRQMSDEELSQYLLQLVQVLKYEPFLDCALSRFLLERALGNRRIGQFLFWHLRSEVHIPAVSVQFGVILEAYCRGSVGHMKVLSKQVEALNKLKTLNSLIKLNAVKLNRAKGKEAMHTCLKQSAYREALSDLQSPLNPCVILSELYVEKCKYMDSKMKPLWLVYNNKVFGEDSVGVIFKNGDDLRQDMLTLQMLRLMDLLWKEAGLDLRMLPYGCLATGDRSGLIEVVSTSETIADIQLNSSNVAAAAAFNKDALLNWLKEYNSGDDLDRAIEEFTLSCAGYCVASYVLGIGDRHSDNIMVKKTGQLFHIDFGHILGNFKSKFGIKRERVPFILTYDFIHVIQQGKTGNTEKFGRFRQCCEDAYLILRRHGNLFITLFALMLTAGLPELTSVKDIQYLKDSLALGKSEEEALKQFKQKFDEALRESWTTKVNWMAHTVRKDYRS
T3 sequence (O75914 whole entry): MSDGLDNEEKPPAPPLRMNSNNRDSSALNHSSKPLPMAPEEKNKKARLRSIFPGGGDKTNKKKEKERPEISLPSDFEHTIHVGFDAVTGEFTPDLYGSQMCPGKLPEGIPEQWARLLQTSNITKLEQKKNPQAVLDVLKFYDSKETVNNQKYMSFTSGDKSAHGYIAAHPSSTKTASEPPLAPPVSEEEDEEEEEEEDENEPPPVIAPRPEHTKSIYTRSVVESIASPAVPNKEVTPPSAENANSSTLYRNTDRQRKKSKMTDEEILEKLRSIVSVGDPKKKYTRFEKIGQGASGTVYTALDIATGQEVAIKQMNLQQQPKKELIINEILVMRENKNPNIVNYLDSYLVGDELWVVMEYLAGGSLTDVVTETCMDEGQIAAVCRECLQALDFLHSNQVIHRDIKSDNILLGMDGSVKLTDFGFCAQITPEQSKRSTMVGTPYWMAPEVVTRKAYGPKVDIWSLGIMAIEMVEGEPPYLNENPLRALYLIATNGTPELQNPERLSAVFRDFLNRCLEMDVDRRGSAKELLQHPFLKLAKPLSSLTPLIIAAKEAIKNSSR

SMILES | KINOMEscan: ACVRL1 (panel of 442 kinases [1]) | KINOMEscan: PIK3CB (panel of 442 kinases [2]) | KINOMEscan: PAK3 (panel of 442 kinases [3])
COc1cc(C(=O)N2CCC(N3CCN(C)CC3)CC2)ccc1Nc1ncc2c(n1)N(C1CCCC1)c1ccccc1C(=O)N2C [Compound 25, 11-cyclopentyl-2-((2-methoxy-4-(4-(4-methylpiperazin-1-yl)piperidine-1-carbonyl)phenyl)amino)-5-methyl-5H-benzo[e]pyrimido[5,4-b][1,4]diazepin-6(11H)-one] | 100 | 87 | 69
CCOc1cc(C(=O)N2CCC(N3CCN(C)CC3)CC2)ccc1Nc1ncc2c(n1)N(C1CCCC1)c1ccccc1C(=O)N2C [Compound 26] | 100 | 100 | 95
COc1cc(C(=O)N2CCC(N3CCN(C)CC3)CC2)ccc1Nc1ncc2c(n1)N1CCc3cccc(c31)C(=O)N2C [Compound 24] | – | 71 | 80
COc1cc(C(=O)N2CCC(N3CCN(C)CC3)CC2)ccc1Nc1ncc2c(n1)N(C)c1ccccc1C(=O)N2C [15 (LRRK2-IN-1)] | 100 | 96 | 83
